Experiment: Permeability across human Caco2 cells
Assay type: ADME, cell-based
Conditions: Caco-2, read-out: permeability

Papp, ≤ 1 ×10⁻⁶ cm/s:
CN(c1cc2cc(c1)C(=O)N[C@H]([C@H](O)CNCc1ccccc1)COC/C=C/CCNC2=O)S(C)(=O)=O
CC(C)c1cccc(CNC[C@@H](O)[C@@H]2COC/C=C/CCNC(=O)c3cc(cc(N(C)S(C)(=O)=O)c3)C(=O)N2)c1
CN(c1cc2cc(c1)C(=O)N[C@H]([C@H](O)CNCc1cccc(C(C)(C)C)c1)COC/C=C/CCNC2=O)S(C)(=O)=O
CC(C)c1cccc(CNC[C@@H](O)[C@@H]2COC/C=C/CCCNC(=O)c3cc(cc(N(C)S(C)(=O)=O)c3)C(=O)N2)c1
CN(c1cc2cc(c1)C(=O)N[C@H]([C@H](O)CNCc1ccccc1)COCCCCCNC2=O)S(C)(=O)=O
CC(C)c1cccc(CNC[C@@H](O)[C@@H]2COCCCCCNC(=O)c3cc(cc(N(C)S(C)(=O)=O)c3)C(=O)N2)c1
CC(C)c1cccc(CNC[C@@H](O)[C@@H]2COCCCCCCNC(=O)c3cc(cc(N(C)S(C)(=O)=O)c3)C(=O)N2)c1
CC(C)c1cccc(CNC[C@@H](O)[C@@H]2COC/C=C\CCN(C)C(=O)c3cc(cc(N(C)S(C)(=O)=O)c3)C(=O)N2)c1
CC(C)c1cccc(CNC[C@@H](O)[C@@H]2COC/C=C/C[C@@H](c3ccccc3)NC(=O)c3cc(cc(N(C)S(C)(=O)=O)c3)C(=O)N2)c1
CC(C)c1cccc(CNC[C@@H](O)[C@@H]2COC/C=C/C[C@H](c3ccccc3)NC(=O)c3cc(cc(N(C)S(C)(=O)=O)c3)C(=O)N2)c1
Cc1cc2cc(c1)C(=O)N[C@H]([C@H](O)CNCc1ccccc1)COC/C=C/CCNC2=O
Cc1cc2cc(c1)C(=O)N[C@H]([C@H](O)CNCc1cccc(C(C)C)c1)COC/C=C/CCNC2=O
Cc1cc2cc(c1)C(=O)N[C@H]([C@H](O)CNCc1cccc(C(C)C)c1)COC/C=C/C[C@@H](c1ccccc1)NC2=O
Cc1cc2cc(c1)C(=O)N[C@@H](c1ccccc1)C/C=C/COC[C@@H]([C@H](O)CNCc1cccc(C(C)C)c1)NC2=O

— ChEMBL document CHEMBL2046431 (Bioorg Med Chem, 2012)
